Values joined by “and” are separate entries in the source; they are usually repeats but may differ in a detail not shown here. Identical values can stand only once.
Assays:
22Rv1 cells = assay: Growth assay (SRB), 22Rv1; type: cell-based, human; conditions: 22Rv1, 4 days, biological reps
Protocol: To determine the IC50 of drug treatments on growth, cells were seeded in 96-well culture plates. Two days after seeding, the cells were treated with increasing concentrations of drugs and incubated for 4 days. Cell number was determined using the SRB assay (Skehan et al, [1990]), and IC50 values were calculated using non-linear regression curve fitting in GraphPad Prism v10. For all other growth experiments, cells were seeded into 96-well plates, and appropriate drugs were added 2 days after seeding. Cells were then incubated in an IncuCyte Zoom live-cell imager, with cell confluency measured every 6 h. Cell doubling times were determined by non-linear curve fitting (exponential growth equation) in GraphPad Prism v10.

MCF7 cells = assay: Growth assay (SRB), MCF7; type: cell-based, human; conditions: for % Growth: biological reps
Method in brief: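 For the SRB assay, cells were treated 2 days after seeding with increasing drug concentrations for 4 days, and IC50 came from non-linear regression. For the IncuCyte runs, drugs were added 2 days post-seeding, confluency was imaged every 6 h, and doubling times were fitted to an exponential growth equation.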

CDK7-D97N = molecular target: T1, CDK7-D97N (Homo sapiens, UniProt P50613, D97N); assay: NanoBRET Target Engagement assay, K-10 tracer displacement in HEK293 cells; type: binding; conditions: CDK7 D97N, replicates N1-N3
T1 construct: expressed in transfected cells; host or cells: HEK293
T1 sequence (P50613 whole entry D97N): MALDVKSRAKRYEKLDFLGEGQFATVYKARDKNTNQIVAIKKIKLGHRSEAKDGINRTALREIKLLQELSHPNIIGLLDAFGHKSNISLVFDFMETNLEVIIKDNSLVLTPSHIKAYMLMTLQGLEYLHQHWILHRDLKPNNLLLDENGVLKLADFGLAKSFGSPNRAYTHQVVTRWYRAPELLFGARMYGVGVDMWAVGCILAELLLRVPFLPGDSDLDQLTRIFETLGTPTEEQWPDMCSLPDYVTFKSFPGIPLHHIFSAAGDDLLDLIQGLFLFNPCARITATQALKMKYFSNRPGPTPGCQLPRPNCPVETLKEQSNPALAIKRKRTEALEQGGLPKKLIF
Protocol: (§1) Energy transfer between the NanoLuc fusion protein and a cell-permeable fluorescent energy transfer probe facilitates quantitative determination of target engagement in live cells (Wells et al, [2020]). Assays were conducted according to this previous report, using the optimal CDK7 probe, K-10, at a concentration of 0.5 µM.
(§2) CDK4, CDK6 and CDK7 and the respective mutant sequences, obtained as synthesised DNA fragments from IDT (Leuven), were cloned by HiFi DNA assembly (New England Biolabs) into the pNLF1-N NanoLuc protein fusion vector (Promega). HEK293 cells, transiently transfected with NanoLuc-CDK fusion constructs, were used for activity determination, utilising the NanoBRET Target Engagement Intracellular Kinase Assay. A CCND1 expression construct was co-transfected with the NanoLuc-CDK4 and NanoLuc-CDK6 fusion constructs. The recommended cell-permeable energy transfer probe, K-10, was used to assess target engagement, as detailed in the manufacturer’s methods (Promega). […] The BRET ratio (mBU) was calculated as acceptor emission (590–610 nm)/donor emission (410–490 nm) × 1000. The mBU values were plotted against the energy probe concentrations to determine maximal binding (Bmax) and Kd values. BRET signal competition by CDK inhibitors was used to determine compound binding to WT and mutant CDKs. […] Inhibitor binding was determined using a fourfold dilution series. mBU values were plotted against test compound concentrations in the presence of K10 tracer. EC50 values were determined using nonlinear regression curve-fitting. Test compound occupancy (%) was calculated using the equation [1 − (x − z)/(y − z)] × 100, where x = mBU in the presence of the test compound and K-10 tracer, y = mBU with K-10 tracer and vehicle control, and z = mBU in the absence of the K-10 tracer or test compound (Wells et al, [2020]).

CDK7-WT = molecular target: T2, CDK7-WT (Homo sapiens, UniProt P50613); assay: as above; type: binding; conditions: CDK7 WT, replicates N1-N3
T2 construct: expressed in transfected cells; host or cells: HEK293
T2 sequence (P50613 whole entry): as the sequence (P50613 whole entry D97N) above, with N97D counted along it
Protocol: as §1, §2

For `CN(C)C/C=C/C(=O)Nc1ccc(C(=O)Nc2cccc(Nc3ncc(Cl)c(-c4c[nH]c5ccccc45)n3)c2)cc1` [THZ1], the “% Growth” value (22Rv1 cells; Log10 Conc. (nM) 0.09) was 93.20% and 88.05%, the “% Growth” value (22Rv1 cells; Log10 Conc. (nM) 0.69) was 85.45% and 77.80% and the “% Growth” value (22Rv1 cells; Log10 Conc. (nM) 1.29) was 56.44% and 44.90%. The “% Growth” value (22Rv1 cells; Log10 Conc. (nM) 1.89) was 5.80% and -0.07%, the “% Growth” value (22Rv1 cells; Log10 Conc. (nM) 2.49) was -4.12% and -6.31% and the “% Growth” value (22Rv1 cells; Log10 Conc. (nM) 3.10) was -6.49% and -7.67%. The “% Growth” value (22Rv1 cells; Log10 Conc. (nM) 3.70) was -6.63% and -7.61%, the “% Growth” value (22Rv1 cells; Log10 Conc. (nM) -0.52) was 98.36% and 93.94% and the “% Growth” value (22Rv1 cells; Log10 Conc. (nM) -1.12) was 96.18% and 94.83%. For the same compound, the IC50 (MCF7 cells; 4 days, SRB) was 153 nM, the “% Growth” value (MCF7 cells; Log10 Conc. (nM) 0.09, 4 days) was 91.30% and 94.59% and 94.55% and the “% Growth” value (MCF7 cells; Log10 Conc. (nM) 0.69, 4 days) was 87.28% and 92.52% and 92.40%. For the same compound, the “% Growth” value (MCF7 cells; Log10 Conc. (nM) 1.29, 4 days) was 80.95% and 90.37% and 89.19%, the “% Growth” value (MCF7 cells; Log10 Conc. (nM) 1.89, 4 days) was 64.20% and 77.72% and 79.90% and the “% Growth” value (MCF7 cells; Log10 Conc. (nM) 3.10, 4 days) was -9.63% and -1.23% and -2.34%. The “% Growth” value (MCF7 cells; Log10 Conc. (nM) 3.70, 4 days) was -9.74% and -3.96% and -4.65%, the “% Growth” value (MCF7 cells; Log10 Conc. (nM) -0.52, 4 days) was 92.77% and 97.61% and 102.10% and the “% Growth” value (MCF7 cells; Log10 Conc. (nM) -1.12, 4 days) was 92.06% and 94.91% and 96.97%. The “% Occupacy” value (CDK7-D97N; Log10 Conc. (nM) 0.09) was 9.16% and 2.67% and 0.07%, the “% Occupacy” value (CDK7-D97N; Log10 Conc. (nM) 0.69) was 13.92% and 3.61% and 4.36% and the “% Occupacy” value (CDK7-D97N; Log10 Conc. (nM) 1.29) was 29.03% and 9.81% and 4.02%. The “% Occupacy” value (CDK7-D97N; Log10 Conc. (nM) 1.89) was 74.11% and 30.96% and 26.31%, the “% Occupacy” value (CDK7-D97N; Log10 Conc. (nM) 2.49) was 95.10% and 79.08% and 80.38% and the “% Occupacy” value (CDK7-D97N; Log10 Conc. (nM) 3.10) was 97.98% and 96.38% and 96.98%. The “% Occupacy” value (CDK7-D97N; Log10 Conc. (nM) 3.70) was 98.68% and 99.58% and 99.12%, the “% Occupacy” value (CDK7-D97N; Log10 Conc. (nM) 4.30) was 99.99% and 100.77% and 101.05% and the “% Occupacy” value (CDK7-D97N; Log10 Conc. (nM) -0.52) was 6.83% and 2.53% and 1.19%. The “% Occupacy” value (CDK7-D97N; Log10 Conc. (nM) -1.12) was 11.58% and 4.35% and 1.55%, the “% Occupacy” value (CDK7-D97N; Log10 Conc. (nM) -1.72) was 7.10% and 3.74% and 2.78% and the “% Occupacy” value (CDK7-WT; Log10 Conc. (nM) 0.09) was 16.74% and 4.33% and 5.86%. For the same compound, the “% Occupacy” value (CDK7-WT; Log10 Conc. (nM) 0.69) was 17.70% and 6.32% and 7.28%, the “% Occupacy” value (CDK7-WT; Log10 Conc. (nM) 1.29) was 29.22% and 3.65% and 10.56% and the “% Occupacy” value (CDK7-WT; Log10 Conc. (nM) 1.89) was 53.51% and 14.09% and 19.55%. For the same compound, the “% Occupacy” value (CDK7-WT; Log10 Conc. (nM) 2.49) was 85.19% and 65.85% and 67.10%, the “% Occupacy” value (CDK7-WT; Log10 Conc. (nM) 3.10) was 97.70% and 100.48% and 92.33% and the “% Occupacy” value (CDK7-WT; Log10 Conc. (nM) 3.70) was 102.14% and 100.08% and 100.97%. For the same compound, the “% Occupacy” value (CDK7-WT; Log10 Conc. (nM) 4.30) was 101.17% and 106.00% and 102.12%, the “% Occupacy” value (CDK7-WT; Log10 Conc. (nM) -0.52) was 21.00% and 8.28% and 9.27% and the “% Occupacy” value (CDK7-WT; Log10 Conc. (nM) -1.12) was 15.97% and 8.08% and 8.28%. For the same compound, the “% Occupacy” value (CDK7-WT; Log10 Conc. (nM) -1.72) was 12.78% and 7.38% and 8.51%.

Source: paper PMC12528448, “Resistance to CDK7 inhibitors directed by acquired mutation of a conserved residue in cancer cells” (The EMBO Journal, 2025)
